Where a name gives a salt, the structure may show the parent alone.
Columns and labels:
[1] = target: thrombin (Bos taurus, UniProt P00735); assay: Inhibition of thrombin (dissociation constant Ki); format: biochemical
[2] = target: factor Xa (Bos taurus, UniProt P00743); assay: Inhibition of factor Xa (dissociation constant Ki); format: biochemical; details: Tables 19-25; read-out: Ki, Factor Xa
[3] = Plasma concentration in rats after subcutaneous administration (HPLC); details: rat, plasma, sc, 5 mg/kg
Description: (§1) For the pharmacokinetic characterization, the plasma concentration of selected derivatives was determined in rats after intravenous (i.v.), subcutaneous (s.c.) and peroral (p.o.) application according to the following three-step procedure:
(§2) 1. A physiological NaCl solution of the substance to be tested was submitted to high pressure liquid chromatography (HPLC) in order to determine its characteristic substance-specific retention time with the chosen test conditions.
(§3) 2. The substance to be tested was diluted in vitro in rat plasma. This solution was also submitted to HPLC to see whether the characteristic peak of the substance once again appeared at the substance-specific retention time.
(§4) 3. […] Blood samples were taken at time intervals of 15 minutes, from which plasma samples were prepared by centrifugation; those samples were also submitted to HPLC to see whether the characteristic peak of the substance appeared again at the substance-specific retention time.

[4] = Plasma concentration in rats after intravenous administration (HPLC)
[5] = Plasma concentration in rats after oral administration (HPLC); details: rat
Description: as §1, §2, §3, §4

[6] = in vivo; details: mouse
[7] = target: T1, plasmin (Homo sapiens, UniProt P00747); assay: Inhibition of plasmin (Ki); format: biochemical; details: Table 26
T1 construct: trypsin and the related enzymes thrombin, plasmin, factor Xa, tPA
T1 sequence (P00747 581-810 limits assumed): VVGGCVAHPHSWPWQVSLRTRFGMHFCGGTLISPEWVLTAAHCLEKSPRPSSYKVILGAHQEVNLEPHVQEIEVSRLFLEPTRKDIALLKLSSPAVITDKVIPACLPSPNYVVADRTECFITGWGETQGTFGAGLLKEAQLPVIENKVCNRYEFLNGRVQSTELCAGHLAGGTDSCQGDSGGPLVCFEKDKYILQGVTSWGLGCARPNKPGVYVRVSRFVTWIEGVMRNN
T1 sequence (P00747 97-580 partner limits assumed): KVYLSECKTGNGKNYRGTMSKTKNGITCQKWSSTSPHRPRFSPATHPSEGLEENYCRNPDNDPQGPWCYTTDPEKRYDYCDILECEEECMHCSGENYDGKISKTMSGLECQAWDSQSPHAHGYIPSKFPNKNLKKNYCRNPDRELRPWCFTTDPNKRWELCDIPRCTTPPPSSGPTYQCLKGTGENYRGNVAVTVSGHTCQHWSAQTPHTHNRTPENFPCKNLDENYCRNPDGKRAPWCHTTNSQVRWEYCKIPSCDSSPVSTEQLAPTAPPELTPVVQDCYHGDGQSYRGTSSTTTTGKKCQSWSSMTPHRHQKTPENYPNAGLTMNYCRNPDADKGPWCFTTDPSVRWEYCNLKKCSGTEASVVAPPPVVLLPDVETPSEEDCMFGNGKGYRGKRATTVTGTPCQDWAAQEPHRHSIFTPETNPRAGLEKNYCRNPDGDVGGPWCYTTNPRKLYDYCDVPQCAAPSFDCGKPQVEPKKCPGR

[8] = target: glandular kallikrein (Sus scrofa, UniProt P00752); assay: Inhibition of glandular kallikrein (Ki); format: biochemical; details: Table 26; read-out: Ki, Gland. Kallikrein
Chain of glandular kallikrein (P00752 8-246): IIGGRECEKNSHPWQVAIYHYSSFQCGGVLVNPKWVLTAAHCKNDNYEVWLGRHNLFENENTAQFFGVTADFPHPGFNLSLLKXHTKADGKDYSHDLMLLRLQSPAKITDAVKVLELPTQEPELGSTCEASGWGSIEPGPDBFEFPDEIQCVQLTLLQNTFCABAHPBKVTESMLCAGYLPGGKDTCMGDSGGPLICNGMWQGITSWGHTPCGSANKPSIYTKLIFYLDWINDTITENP

[9] = target: T2, factor XIIa (Homo sapiens, UniProt P00748); assay: Inhibition of factor XIIa (Ki); format: biochemical; details: Table 26
T2 construct: glandular kallikrein, factor XIIa and plasma kallikrein
T2 sequence (P00748 373-615 limits assumed): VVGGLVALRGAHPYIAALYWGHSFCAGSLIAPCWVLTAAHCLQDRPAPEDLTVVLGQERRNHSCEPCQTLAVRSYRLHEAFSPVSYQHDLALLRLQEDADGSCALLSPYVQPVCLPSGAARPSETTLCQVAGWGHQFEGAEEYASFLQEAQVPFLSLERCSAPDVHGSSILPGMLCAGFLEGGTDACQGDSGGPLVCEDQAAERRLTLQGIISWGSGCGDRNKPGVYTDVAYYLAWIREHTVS

[10] = target: T3, plasma kallikrein (Homo sapiens, UniProt P03952); assay: Inhibition of plasma kallikrein (Ki); format: biochemical; details: Table 26
T3 construct: glandular kallikrein, factor XIIa and plasma kallikrein
T3 sequence (P03952 391-638 limits assumed, species assumed): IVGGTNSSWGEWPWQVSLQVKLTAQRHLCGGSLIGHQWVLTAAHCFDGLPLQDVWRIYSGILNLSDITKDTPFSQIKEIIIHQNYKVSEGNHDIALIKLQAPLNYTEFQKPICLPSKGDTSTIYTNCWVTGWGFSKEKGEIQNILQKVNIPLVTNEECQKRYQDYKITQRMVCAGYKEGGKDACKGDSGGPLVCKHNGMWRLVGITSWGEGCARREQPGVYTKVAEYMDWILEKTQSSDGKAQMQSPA
T3 sequence (P03952 20-390 partner limits assumed, species assumed): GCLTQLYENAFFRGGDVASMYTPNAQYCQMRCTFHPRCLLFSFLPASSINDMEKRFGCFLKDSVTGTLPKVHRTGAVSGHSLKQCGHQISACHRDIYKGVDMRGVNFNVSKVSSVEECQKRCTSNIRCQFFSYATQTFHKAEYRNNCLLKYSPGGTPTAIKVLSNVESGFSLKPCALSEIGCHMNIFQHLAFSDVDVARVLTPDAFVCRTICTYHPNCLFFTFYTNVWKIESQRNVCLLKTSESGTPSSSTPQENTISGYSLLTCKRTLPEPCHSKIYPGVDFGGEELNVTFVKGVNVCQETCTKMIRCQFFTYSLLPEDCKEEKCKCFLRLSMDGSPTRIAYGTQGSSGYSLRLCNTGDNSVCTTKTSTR

[11] = target: tPA (Homo sapiens, UniProt P00750); assay: Inhibition of tPA (Ki); format: biochemical; details: Table 26
Chain of tPA (P00750 36-562): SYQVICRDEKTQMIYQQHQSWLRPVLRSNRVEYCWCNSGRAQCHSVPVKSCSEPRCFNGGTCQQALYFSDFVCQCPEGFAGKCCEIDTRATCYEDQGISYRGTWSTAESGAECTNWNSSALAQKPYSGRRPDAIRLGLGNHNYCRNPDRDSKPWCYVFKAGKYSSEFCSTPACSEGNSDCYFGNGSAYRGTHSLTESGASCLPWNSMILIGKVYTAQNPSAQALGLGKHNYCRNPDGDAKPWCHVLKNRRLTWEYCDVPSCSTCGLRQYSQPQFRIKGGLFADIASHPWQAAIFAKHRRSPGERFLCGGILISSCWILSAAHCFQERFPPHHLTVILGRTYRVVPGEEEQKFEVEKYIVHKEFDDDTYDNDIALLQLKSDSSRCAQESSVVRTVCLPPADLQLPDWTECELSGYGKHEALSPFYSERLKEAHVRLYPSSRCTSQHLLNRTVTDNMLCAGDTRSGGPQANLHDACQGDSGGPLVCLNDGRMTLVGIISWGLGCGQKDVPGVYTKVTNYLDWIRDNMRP

Chain of factor Xa (P00743 234-492 limits assumed): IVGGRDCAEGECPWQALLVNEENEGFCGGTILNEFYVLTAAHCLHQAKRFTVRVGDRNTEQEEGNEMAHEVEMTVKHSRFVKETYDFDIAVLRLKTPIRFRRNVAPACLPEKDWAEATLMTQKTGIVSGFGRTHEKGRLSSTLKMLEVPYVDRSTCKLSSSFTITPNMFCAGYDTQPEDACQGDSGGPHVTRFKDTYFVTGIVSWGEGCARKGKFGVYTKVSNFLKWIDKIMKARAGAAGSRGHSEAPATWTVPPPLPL
Chain of factor Xa (P00743 41-180 partner limits assumed): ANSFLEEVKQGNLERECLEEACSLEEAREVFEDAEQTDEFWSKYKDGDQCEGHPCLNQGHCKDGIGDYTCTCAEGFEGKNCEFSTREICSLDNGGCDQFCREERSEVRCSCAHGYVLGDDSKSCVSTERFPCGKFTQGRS

COC(=O)CNC(=O)C1CCCCN1C(=O)C(Cc1cccc(C(=N)N)c1)NS(=O)(=O)c1ccc2ccccc2c1 (racemic) [Compound 117, N-α-(2-Naphthylsulfonyl-3-amidino-(D,L)-phenylalanyl-(D,L)-pipecolyl-glycine-methyl ester hydrochloride]
Ki [1]: 0.88 µM | Ki [2]: 38 µM

CC1CCCCN1C(=O)C(Cc1cccc(C(=N)N)c1)NS(=O)(=O)c1ccc2ccccc2c1 (racemic) [Compound 32]
Ki [1]: 0.13 µM | Ki [2]: 74 µM

NCc1cccc(CC(NS(=O)(=O)c2ccc3ccccc3c2)C(=O)N2CCC(C(=O)O)CC2)c1 (racemic) [Compound 186]
concentration at 0.25 h [3]: 251 ng/mL | concentration at 0.5 h [3]: 368 ng/mL | concentration at 0.75 h [3]: 444 ng/mL | concentration at 1 h [3]: 558 ng/mL | concentration at 1.5 h [3]: 629 ng/mL | concentration at 2 h [3]: 534 ng/mL | concentration at 3 h [3]: 533 ng/mL | concentration at 4 h [3]: 669 ng/mL | concentration at 5 h [3]: 455 ng/mL | concentration at 6 h [3]: 340 ng/mL | pharmacokinetic properties ([4]; in words, compared with NAPAP): improved pharmacokinetic properties | concentration at 2 min ([4]; rat, plasma, iv, 1 mg/kg): 1840 ng/mL | concentration at 5 min ([4]; rat, plasma, iv, 1 mg/kg): 1260 ng/mL | concentration at 10 min ([4]; rat, plasma, iv, 1 mg/kg): 653 ng/mL | concentration at 0.25 h ([4]; rat, plasma, iv, 1 mg/kg): 426 ng/mL | concentration at 0.5 h ([4]; rat, plasma, iv, 1 mg/kg): 225 ng/mL | concentration at 0.75 h ([4]; rat, plasma, iv, 1 mg/kg): 205 ng/mL | concentration at 1 h ([4]; rat, plasma, iv, 1 mg/kg): 193 ng/mL | concentration at 1.5 h ([4]; rat, plasma, iv, 1 mg/kg): 53 ng/mL | concentration at 2 h ([4]; rat, plasma, iv, 1 mg/kg): 228 ng/mL | concentration at 0.25 h ([5]; plasma, po, 100 mg/kg): 996 ng/mL | concentration at 0.5 h ([5]; plasma, po, 100 mg/kg): 800 ng/mL | concentration at 0.75 h ([5]; plasma, po, 100 mg/kg): 769 ng/mL | concentration at 1 h ([5]; plasma, po, 100 mg/kg): 1250 ng/mL | concentration at 1.5 h ([5]; plasma, po, 100 mg/kg): 877 ng/mL | concentration at 2 h ([5]; plasma, po, 100 mg/kg): 619 ng/mL | concentration at 3 h ([5]; plasma, po, 100 mg/kg): 357 ng/mL | concentration at 4 h ([5]; plasma, po, 100 mg/kg): 328 ng/mL | concentration at 5 h ([5]; plasma, po, 100 mg/kg): 370 ng/mL | concentration at 6 h ([5]; plasma, po, 100 mg/kg): 326 ng/mL | LD50 at 168 h ([6]; iv): 100 mg/kg | LD50 at 168 h ([6]; po): > 3000 mg/kg | Ki [1]: 0.5 µM | Ki [2]: 230 µM

COC(=O)C(Cc1cccc(C(=N)N)c1)NS(=O)(=O)c1ccc2ccccc2c1 (racemic) [Compound 7]
Ki [7]: 5.2 µM | Ki [8]: 210 µM | Ki [9]: 190 µM | Ki [10]: 18 µM | Ki [1]: 0.28 µM | Ki [2]: 2.5 µM | Ki [11]: 120 µM

N=C(N)c1cccc(CC(NS(=O)(=O)c2ccc3ccccc3c2)C(=O)N2CCCCC2C(=O)NCC(=O)O)c1 (racemic) [Compound 116, N-α-(2-Naphthylsulfonyl)-3-amidino-(D,L)-phenylalanyl-(D,L)-pipecolyl-glycine hydrochloride]
Ki [1]: 1.3 µM | Ki [2]: 110 µM

COC(=O)[C@H](Cc1cccc(C(=N)N)c1)NC(=O)CNS(=O)(=O)c1ccc(C)cc1 [TAPAM, Nα-tosylglycyl-3-amidinophenylalanine methyl ester, reference compound]
Ki [7]: 160 µM | Ki [8]: 890 µM | LD50 at 168 h ([6]; iv): 103 mg/kg | LD50 at 168 h ([6]; po): > 1000 mg/kg | Ki [9]: 180 µM | Ki [10]: 15 µM | Ki [11]: 27 µM

N=C(N)c1cccc(CC(NC(=O)CNS(=O)(=O)c2ccc3ccccc3c2)C(=O)N2CCC(C(=O)O)CC2)c1 (racemic) [Compound 166]
Ki [1]: 46 µM | Ki [2]: 97 µM

Nc1cccc(CC(NS(=O)(=O)c2ccc3ccccc3c2)C(=O)N2CCC(C(=O)O)CC2)c1 (racemic) [Compound 205]
Ki [1]: 720 µM | Ki [2]: 720 µM

N=C(N)c1cccc(CC(NS(=O)(=O)c2ccc3ccccc3c2)C(=O)N2CC3CCCCC3CC2C(=O)O)c1 (racemic) [Compound 151, N-α-(2-Naphthylsulfonyl)-3-amidino-(D,L)-phenylalanyl-decahydroisoquinoline-3-carboxylic acid hydrochloride]
Ki [1]: 0.12 µM | Ki [2]: 54 µM

N=C(N)c1cccc(CC(NS(=O)(=O)c2cccc3cccnc23)C(=O)N2CCCCC2C(=O)O)c1 (racemic) [Compound 180]
Ki [1]: 16 µM | Ki [2]: 380 µM

N=C(N)c1cccc(CC(NS(=O)(=O)c2ccc3ccccc3c2)C(=O)N2CCC(C(=O)O)CC2)c1 (racemic) [Compound 85]
concentration at 0.25 h [3]: 1330 ng/mL | concentration at 0.5 h [3]: 1030 ng/mL | concentration at 0.75 h [3]: 860 ng/mL | concentration at 1 h [3]: 834 ng/mL | concentration at 1.5 h [3]: 913 ng/mL | concentration at 2 h [3]: 977 ng/mL | concentration at 3 h [3]: 815 ng/mL | concentration at 4 h [3]: 676 ng/mL | concentration at 5 h [3]: 550 ng/mL | concentration at 2 min ([4]; rat, plasma, iv, 1 mg/kg): 2350 ng/mL | concentration at 5 min ([4]; rat, plasma, iv, 1 mg/kg): 1240 ng/mL | concentration at 10 min ([4]; rat, plasma, iv, 1 mg/kg): 526 ng/mL | concentration at 0.25 h ([4]; rat, plasma, iv, 1 mg/kg): 334 ng/mL | concentration at 0.5 h ([4]; rat, plasma, iv, 1 mg/kg): 240 ng/mL | concentration at 0.75 h ([4]; rat, plasma, iv, 1 mg/kg): 176 ng/mL | concentration at 1 h ([4]; rat, plasma, iv, 1 mg/kg): 99 ng/mL | concentration at 1.5 h ([4]; rat, plasma, iv, 1 mg/kg): 52 ng/mL | concentration at 2 h ([4]; rat, plasma, iv, 1 mg/kg): 28 ng/mL | concentration at 4 h ([4]; rat, plasma, iv, 1 mg/kg): 14 ng/mL | Concentration in plasma ([5]; oral 100 mg/kg, 240 min): 0 ng/mL | concentration at 0.25 h ([5]; plasma, po, 100 mg/kg): 870 ng/mL | concentration at 0.5 h ([5]; plasma, po, 100 mg/kg): 541 ng/mL | concentration at 0.75 h ([5]; plasma, po, 100 mg/kg): 345 ng/mL | concentration at 1 h ([5]; plasma, po, 100 mg/kg): 120 ng/mL | concentration at 2 h ([5]; plasma, po, 100 mg/kg): 103 ng/mL | concentration at 3 h ([5]; plasma, po, 100 mg/kg): 104 ng/mL | LD50 at 168 h ([6]; iv): 43 mg/kg | LD50 at 168 h ([6]; po): > 3000 mg/kg

Source: US5518735A, “Meta-substituted phenylalanine derivatives” (priority 1990, dated 1996)
